The source of these data is US20080119567A1, “Methods of use of herbal compositions” (priority 2003, published 2008).

“And” between values parts separate entries of the source, which are not always exact repeats. Identical values can stand only once.

Data set [1] deals with Helicobacter pylori (clinical isolate strain). In words: Gastric ulceration after Helicobacter pylori inoculation in mice (Example 11). Type of data set: in vivo, ICR derived mice. Conditions: 24.5 ml/kg × 2 × 7 PO (text: 24.5 mg/kg). The method, then:
Seven groups of 5 male ICR derived mice weighing 24±2 grams were fasted for 18 hours before the intragastric inoculation of Helicobacter pylori (clinical isolate strain) in suspension at 1.5×10^9 CFU/0.4 ml/mouse. […] Subsequently, test substances and vehicle were each administered orally twice daily (9:00 A.M. and 16:00 P.M.) for […]. omeprazole 1 mg/kg and clarithromycin 10 mg/kg in combination was used as a positive control agent and was administered orally to test animals once daily (9:00 A.M.) for 7 consecutive days. Seven days after infection, on day eight, all animals with overnight fasting were sacrificed and the stomachs were dissected along the greater curvature. Gastric ulceration was scored at four levels according to the degree of hemorrhage and the severity of ulcerative lesions: 0=normal appearance, 1=mild red spots, 2=moderate red spots and/or hemorrhage spots, 3=marked hemorrhage spots. Reduction of concurrent vehicle control score values by 50 percent or more (≧50%) is considered significant. Test substances and vehicle control (2% TWEEN 80® in 0.9% NaCl solution) were each administered orally to test animals twice daily for 7 consecutive days. The Helicobacter pylori (1.5×10^9 CFU/0.4 ml/mouse) inoculation was applied one hour before the first dosing on day 1. […]

A short description of data set [2]: Pharmacokinetics study of intravenous injection with and without geranium oil. Type of data set: in vivo, mice.
Another data set deals with H. pylori (ATCC 43504). In words: Minimum inhibitory concentration by agar dilution method. In kind it is cell-based, Helicobacter pylori. Further details: key: scored positive (+) for inhibition/eradication of colonies growth; negative (−) for no effect upon growth colonies. Conditions: 0.3 μg/ml; 37° C., 72 hours, n=2. The method, then:
Minimum inhibitory concentration is determined by the agar dilution method. 2 mg of test substance, composition of geranium oil and extracts from S. flavescenes prepared for injections (MIC-1), is dissolved and serially diluted in solvent (distilled water) to desired stock concentrations. For each concentration tested, a 10 μl aliquot is added to a 48-well plate containing 0.99 ml of Columbia agar base supplemented with 7% defibrinated rabbit blood. The inoculum of H. pylori (ATCC 43504) is prepared by suspending in brain heart infustion broth to a density of 5×10^8 CFU/ml. A multiprong-incubating device is used to place approximately 5×10^5 CFU/ml per spot onto the containing agent media. […] The plates are incubated at 37° C. for 72 hours in the microaerophilic condition (mixed gas N2 85%, CO2 10%, and O2 5%) and then visually examined and scored positive (+) for inhibition/eradication of colonies growth or negative (−) for no effect upon growth colonies. […] Each concentration is evaluated in duplicate.
Minimum inhibitory concentration is determined by the agar dilution method. […] The plates are incubated at 37° C. for 72 hours in the microaerophilic condition (mixed gas N2 85%, CO2 10%, and O2 5%) and then visually examined and scored positive (+) for inhibition/eradication of colonies growth or negative (−) for no effect upon growth colonies. […] Each concentration is evaluated in duplicate. […]

On to `CC(C)=CCCC(C)CCO` (centres unmarked) [MIC-20, citronellol], for which the “Ulceration Score Total” value in data set [1] (N=5) came out at 3. In addition, the “Ulceration Score Individual” value in data set [1] (mice 1-5, score 0-3) is 0 (3×) and 2 and 1.

As for `O=C1CCC[C@@H]2[C@H]3CCCN4CCC[C@@H](CN12)[C@@H]34` [matrine], the “effect of addition of geranium oil on absorption and metabolism (HPLC peak areas over time)” value in data set [2] (intravenous injection, mice, with geranium oil vs alone) is “increase the absorption and metabolism”.

Consider `O=C1CCC[C@@H]2[C@H]3CCC[N+]4([O-])CCC[C@@H](CN12)[C@@H]34` (some centres unmarked) [oxymatrine], for which the “effect of addition of geranium oil on absorption and metabolism (HPLC peak areas over time)” value in data set [2] (mouse, in vivo, iv) was “increase the absorption and metabolism”.

On to gentamicin, for which, in the data set with H. pylori (ATCC 43504), the “Result (inhibition/eradication of colonies growth)” value is “+”.
